Data from ChEMBL document CHEMBL1201862, “PubChem BioAssay data set” (2004).
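96-well plates; 48 h exposure; 5 concentrations. Endpoints by linear interpolation between flanking doses. Not reached: highest tested concentration assigned. GI50 is the concentration that inhibits growth by half.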 The source made the active and inactive calls. Cut-off read from the data, not from the text of the source: active = GI50 up to about 1.1 µM and inactive = higher.

Columns and labels:
Test in all cases: inhibition of tumour cell growth, NCI panel, 48 h
SK-OV-3 = tested on: SK-OV-3
K562 = tested on: K562
SNB-19 = tested on: SNB-19
HOP-18 = tested on: HOP-18
HCC 2998 = tested on: HCC 2998
SW-620 = tested on: SW-620
DLD-1 = tested on: DLD-1
RXF 393 = tested on: RXF 393
OVCAR-4 = tested on: OVCAR-4
A549 = tested on: A549
SF-268 = tested on: SF-268
UO-31 = tested on: UO-31
UACC-257 = tested on: UACC-257
SR = tested on: SR
OVCAR-5 = tested on: OVCAR-5
LOX IMVI = tested on: LOX IMVI
SF-539 = tested on: SF-539
HL-60 = tested on: HL-60
U-251 = tested on: U-251
CCRF-CEM = tested on: CCRF-CEM
NCI-H460 = tested on: NCI-H460
M14 = tested on: M14
NCI-H23 = tested on: NCI-H23
RPMI-8226 = tested on: RPMI-8226
EKVX = tested on: EKVX
SNB-78 = tested on: SNB-78
OVCAR-8 = tested on: OVCAR-8
HOP-62 = tested on: HOP-62
LXFL 529 = tested on: LXFL 529
HT-29 = tested on: HT-29
KM12 = tested on: KM12
SN12C = tested on: SN12C
UACC-62 = tested on: UACC-62
SF-295 = tested on: SF-295
ACHN = tested on: ACHN
Malme-3M = tested on: Malme-3M
MOLT-4 = tested on: MOLT-4
SNB-75 = tested on: SNB-75
TK-10 = tested on: TK-10
XF498 = tested on: XF498
SK-MEL-28 = tested on: SK-MEL-28
786-0 = tested on: 786-0
NCI-H226 = tested on: NCI-H226
KM-20L2 = tested on: KM-20L2
IGROV-1 = tested on: IGROV-1
HCT-116 = tested on: HCT-116
OVCAR-3 = tested on: OVCAR-3
A498 = tested on: A498
DMS-114 = tested on: DMS-114
HCT-15 = tested on: HCT-15
M19-MEL = tested on: M19-MEL
SK-MEL-5 = tested on: SK-MEL-5
SK-MEL-2 = tested on: SK-MEL-2
CAKI-1 = tested on: CAKI-1
HOP-92 = tested on: HOP-92
DMS-273 = tested on: DMS-273
COLO 205 = tested on: COLO 205
NCI-H522 = tested on: NCI-H522

Measured: GI50

Cc1[nH]c2ccccc2c1C1Cc2ccccc2N1C(=O)C#Cc1ccc([N+](=O)[O-])cc1 (stereo not drawn)
inactive: SK-OV-3 > 100 µM | K562 > 100 µM | SNB-19 > 100 µM | HOP-18 > 100 µM | HCC 2998 > 100 µM | SW-620 > 100 µM | DLD-1 > 100 µM | RXF 393 6.81 µM | OVCAR-4 43.7 µM | A549 > 100 µM | SF-268 > 100 µM | UO-31 51.9 µM | UACC-257 > 100 µM | SR 8 µM | OVCAR-5 > 100 µM | LOX IMVI > 100 µM | SF-539 > 100 µM | HL-60 > 100 µM | U-251 > 100 µM | CCRF-CEM 19.2 µM | NCI-H460 > 100 µM | M14 > 100 µM | NCI-H23 > 100 µM | RPMI-8226 76 µM | EKVX > 100 µM | SNB-78 > 100 µM | OVCAR-8 > 100 µM | HOP-62 > 100 µM | LXFL 529 > 100 µM | HT-29 > 100 µM | KM12 > 100 µM | SN12C > 100 µM | UACC-62 > 100 µM | SF-295 > 100 µM | ACHN > 100 µM | Malme-3M > 100 µM | MOLT-4 8.87 µM | SNB-75 > 100 µM | TK-10 > 100 µM | XF498 > 100 µM | SK-MEL-28 > 100 µM | 786-0 > 100 µM | NCI-H226 > 100 µM | KM-20L2 > 100 µM | IGROV-1 > 100 µM | HCT-116 > 100 µM | OVCAR-3 > 100 µM | A498 > 100 µM | DMS-114 > 100 µM

Cc1c2c(cc3c1C(=O)C(=O)C1=C3OC[C@@H]1C)C(C)(C)CCC2
14.2 µM: HCT-15
inactive: SK-OV-3 41.9 µM | K562 14.9 µM | SNB-19 22.1 µM | HOP-18 17.1 µM | HCC 2998 20.4 µM | SW-620 15.1 µM | DLD-1 18.7 µM | M19-MEL 2.64 µM | RXF 393 17.9 µM | OVCAR-4 17.9 µM | A549 13 µM | SF-268 14.1 µM | UO-31 18.7 µM | UACC-257 15.1 µM | SR 11.6 µM | OVCAR-5 21.5 µM | LOX IMVI 7.43 µM | SF-539 16.3 µM | HL-60 10.3 µM | SK-MEL-5 13.3 µM | U-251 16.2 µM | SK-MEL-2 6.15 µM | CCRF-CEM 18 µM | NCI-H460 13.7 µM | M14 13.9 µM | NCI-H23 14.8 µM | CAKI-1 19.3 µM | EKVX 20.9 µM | OVCAR-8 18.2 µM | HOP-62 21.5 µM | LXFL 529 16 µM | HT-29 16.6 µM | HOP-92 21.3 µM | KM12 11.9 µM | SN12C 16.8 µM | DMS-273 14.4 µM | UACC-62 13.2 µM | SF-295 14.5 µM | ACHN 16 µM | Malme-3M 15.6 µM | MOLT-4 12.4 µM | COLO 205 7.29 µM | SNB-75 26.1 µM | TK-10 26.5 µM | XF498 29.9 µM | SK-MEL-28 14 µM | 786-0 23.4 µM | KM-20L2 19.5 µM | IGROV-1 19.7 µM | HCT-116 13.8 µM | OVCAR-3 13.9 µM | A498 22.3 µM | DMS-114 16.8 µM

COC(=O)c1ccc(OCc2ccc3nc(OC)c(OC)nc3c2)cc1
> 100 µM: HCT-15
inactive: K562 > 100 µM | SNB-19 > 100 µM | HOP-18 > 100 µM | HCC 2998 > 100 µM | SW-620 > 100 µM | DLD-1 > 100 µM | M19-MEL > 100 µM | OVCAR-4 > 100 µM | A549 > 100 µM | SF-268 > 100 µM | UO-31 > 100 µM | UACC-257 > 100 µM | SR > 100 µM | OVCAR-5 > 100 µM | LOX IMVI > 100 µM | SF-539 > 100 µM | HL-60 > 100 µM | SK-MEL-5 > 100 µM | U-251 49.1 µM | SK-MEL-2 > 100 µM | CCRF-CEM > 100 µM | NCI-H460 > 100 µM | M14 > 100 µM | NCI-H23 > 100 µM | RPMI-8226 > 100 µM | CAKI-1 > 100 µM | EKVX > 100 µM | SNB-78 > 100 µM | NCI-H522 34 µM | OVCAR-8 > 100 µM | HOP-62 68.4 µM | HT-29 > 100 µM | KM12 > 100 µM | SN12C > 100 µM | DMS-273 > 100 µM | SF-295 82.6 µM | ACHN > 100 µM | Malme-3M > 100 µM | MOLT-4 > 10 µM | COLO 205 > 100 µM | SNB-75 > 100 µM | TK-10 > 100 µM | XF498 > 100 µM | SK-MEL-28 > 100 µM | 786-0 > 100 µM | NCI-H226 > 100 µM | HCT-116 89.9 µM | OVCAR-3 > 100 µM | DMS-114 52.8 µM
